From US20140255432A1, “SILVESTROL, SILVESTROL ANALOGS AND USES THEREOF” (priority 2011, published 2014)

Experiments:
K562 cells = assay: NK cytotoxicity of K562 cells; assay type: cell-based; details: 10 nM (FIG. 41)
Source text: (§1) FIG. 41 presents data regarding NK cytotoxicity of K562 cells. […] FIG. 42 presents data regarding the cytotoxicity of LCLs pretreated with BZLF 1. […] BZLF1 antigen pulsed LCLs promoted enhanced killing in untreated and silvestrol-treated CTLs. FIG. 43 presents data relating to CD4 IFNgamma release with LCL pretreated with BZLF1. […] FIG. 44 presents data relating to CD4 IFNgamma release with LCL pretreated with BZLF 1. […] FIG. 45 presents data relating to interleukin-6 induction by silvestrol. […] FIG. 46 presents data relating to a change in LMP-1 expression following silvestrol treatment. […] Three cell lines were examined on days 1, 3, and 5 following treatment. FIG. 47 presents data relating to a change in EBNA1 expression following silvestrol treatment. Three cell lines were examined on days 1, 3, and 5 following treatment.

[1] = tested on: EBV-positive lymphoblastoid cell lines (LCL); assay: Apoptosis/viability by annexin/PI flow cytometry; assay type: cell-based, human; details: 2-50 nM; 24, 72, 120 hr; p=0.006 averaged over doses and time points
Description: Cells from irradiated or non-irradiated co-cultures were co-stained with LIVE/DEAD cell stain (Invitrogen, Grand Island, N.Y.) and hu-CD3-APC and either hu-CD4-PE, hu-CD-8-PE, hu-CD19-PE (BD Biosciences, San Diego, Calif.), or hu-CD56-PE (Beckman Coulter, Brea, Calif.). Live events were gathered by gating on cells negative for the LIVE/DEAD stain on an FC500 cytometer (Beckman Coulter). Cell viability was also measured by flow cytometry at 24, 72, and 120 hr using annexin-V-FITC and propidium iodide (PI) according to the manufacturer's instructions (BD Biosciences).
The direct anti-tumor activity of silvestrol in leukemia and lymphoma models has been document (Hwang 2004; Bordeleau 2008; Cencic 2009; Lucas 2009 Alinari 2011; Saradhi 2011) as well as silvestrol's increased cytotoxicity to malignant B cells compared to normal blood lymphocytes (Lucas 2009). However, activity of silvestrol has not previously been described in spontaneous EBV-transformed cell lines. Silvestrol's activity in fully transformed EBV-positive LCL derived from tumors of SCID mice engrafted with PBMC from EBV-seropositive donors was observed. Six of these EBV-LCL lines were plated in the presence of low concentrations of silvestrol (2-50 nM), and apoptosis (viability assessed by annexin/PI flow cytometry) (FIG. 2A) and proliferation (MTS assay) (FIG. 2B) were evaluated at 24, 72, and 120 hr. […]

IFNgamma = IFNgamma release / production of immune effector cells; assay type: cell-based, human
Description: CoCx were incubated in the presence of 10 U/ml IL-2 and given a single dose of 0 (vehicle only), 2, 5, or 10 nM silvestrol. At day 14 cells were (A) stimulated non-specifically by addition of 12-O-tetradecanoylphorbol-13-acetate (TPA) and ionomycin (INO) to assay for the ability to release interferon gamma (IFNγ) or (B) by the addition of equal numbers autologous LCL to measure cell mediated response to antigen-induced IFNγ production. IFNγ production was measured by […] flow following four hour stimulation.
as §1

EBV-LPD = assay: hu-PBL-SCID model of EBV-LPD; assay type: in vivo, SCID mice
Description: Six week-old female SCID mice (n=28) received anti-asialo antisera prior to engraftment to deplete murine NK cells. Mice were engrafted intraperitoneally with 5×10^7 peripheral blood mononuclear cells (PBMCs) obtained from EBV-positive, healthy donor. Untreated mice in this model develop lethal disseminated (human) lymphoma; median survival varies by PBMC donor for that experiment. Two weeks post-engraftment, treatments were initiated with either vehicle (30% HBPCD) or vehicle+silvestrol (1.5 mg/kg every 48 hrs; n=14 each). 4 and 8 weeks post-engraftment, 2 mice from each group were sacrificed for examination and blood was drawn from all mice to assess human IgG levels (FIG. 23). The remainder of mice (n=10 each) were followed for survival. Survival is defined as absence of IACUC-approved euthanasia criteria (in this model, typically this is weight loss >20%, together with labored breathing and cessation of grooming).
The Hu-PBL-SCID mouse model has been described (Mosier 1992). Human PBMCs were obtained from a healthy EBV seropositive donor. 5×10^7 cells were injected intraperitoneally (IP) into 6 week-old female SCID mice (Taconic) that were NK cell-depleted by pretreatment with anti-asialo (GM1) (Wako Pure Chemical Industries, Richmond, Va.). Engraftment was confirmed by hu-IgG ELISA from serum as described (Baiocchi 1994). Silvestrol treatment began two weeks post-engraftment.
The hu-PBL SCID model has been used to study the effect of compounds on spontaneously derived EBV-driven lymphomas (Fuzzati-Armentero 1998). PBMC from a healthy EBV-positive donor were injected into a group of SCID mice that had been pretreated with anti-asialo (GM1) to deplete murine NK cells. Mice were randomized (n=14/group) and treatment with 1.5 mg/kg silvestrol or vehicle control every 48 hr began two weeks after engraftment. Two weeks after treatment began (four weeks post-engraftment), an ELISA was performed to evaluate human IgG. […] At 4 and 8 weeks post-engraftment, flow cytometry analysis was performed on spleen cells from two mice in each group. […] Spleens were also obtained from mice as the disease progressed and euthanasia criteria were met. […] During the 140-day experiment, the health of the mice was tracked by body weight. Weights of all mice were checked twice weekly.

[2] = 1.5 mg/kg every 48 hr, 140-day experiment

SMILES: COC(=O)[C@H]1[C@@H](O)[C@@]2(O)c3c(OC)cc(O[C@@H]4O[C@@H]([C@H](O)CO)CO[C@H]4OC)cc3O[C@@]2(c2ccc(OC)cc2)[C@@H]1c1ccccc1 [silvestrol]
- direct killing of K562 cells by NK cells (K562 cells): not adversely affected
- apoptosis vs. untreated control [1]: Moderate but significant activity
- IFNgamma release of CD4+ T cells (IFNgamma; 10 nM, LCL pretreated with BZLF1 (FIG. 43)): not adversely affected
- IFN production of immune effector subsets against irradiated autologous EBV+ LCL (DC9) (IFNgamma; low concentrations (2-10 nM) (FIG. 18)): not abrogated
- signs of disease at the end of the study (flow cytometry of spleen cells) (EBV-LPD; 1.5 mg/kg every 48 hr): no signs of disease
- engraftment of human PBMCs (human immunoglobulin production) (EBV-LPD; 1.5 mg/kg every 48 hr (FIG. 23)): did not affect engraftment
- EBV-LPD infiltration of the spleen (flow cytometry) (EBV-LPD; 1.5 mg/kg every 48 hr, 4 and 8 weeks post-engraftment): no tumor burden
- body weight compared to vehicle-treated mice (EBV-LPD; [2]): gain weight at a faster pace
- ill effects from long-term treatment (EBV-LPD; [2]): did not show observable ill effects
- mean spleen weight (EBV-LPD; 1.5 mg/kg every 48 hr, after completion of the experiment at day 140): 72.9 mg
- production of human IgG by xenografted B-lymphocytes (EBV-LPD; 1.5 mg/kg every 48 hr, four weeks post-engraftment): did not affect
- mice alive at day 140 (overall survival) (EBV-LPD; 1.5 mg/kg every 48 hr, p<0.001 vs. vehicle): 7/7
